Laboratory results from US9326973B2, “Hepatitis C virus inhibitors” (priority 2012, dated 2016).
Read-outs that look alike come from different tables or passages of the source.

Tested on: HCV replicon, genotype-1a variant with glutamine 30 changed to glutamate in the NS5A protein
Experiment: microbe, parasite or virus in culture
Type: cell-based, HCV genotype 1a
Details: for Fold-Synergistic 1a (Q30E): HCV replicon genotype 1a Q30E (Q→E) variant, test compound titrated with an NS5A-targeting compound (BMS-790052 fixed at 200 nM), ranking of synergist activity; for EC50: Hepatitis C virus
Method in brief: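 Synergy was assessed by combining several fixed amounts of an NS5A-targeting compound with a titration of the second compound of interest.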

SMILES | Fold-Synergistic 1a (Q30E) | other results
CC(C)[C@H](NC(=O)C(C)(C)C)c1nc(-c2ccc(-c3ccc(-c4c[nH]c([C@@H](NC(=O)C(C)(C)C)C(C)C)n4)c(F)c3)cc2)c[nH]1 [Compound N-89] | >100 fold | 
CC(C)[C@H](NC(=O)C(C)(C)F)c1nc(-c2ccc(-c3ccc(-c4c[nH]c([C@@H](NC(=O)C(C)(C)F)C(C)C)n4)c(F)c3)cc2)c[nH]1 [Compound N-90] | >100 fold | 
CC(C)[C@H](NC(=O)C(C)(C)OCC(F)F)c1nc(-c2ccc(-c3ccc(-c4c[nH]c([C@@H](NC(=O)C(C)(C)OCC(F)F)C(C)C)n4)c(F)c3)cc2)c[nH]1 [Compound N-91] | >100 fold | 
CC(C)[C@H](NC(=O)c1ccccc1F)c1nc(-c2ccc(-c3ccc(-c4c[nH]c([C@@H](NC(=O)c5ccccc5F)C(C)C)n4)c(F)c3)cc2)c[nH]1 [Compound N-92] | >100 fold | 
CC(C)(C)C(=O)N[C@H](c1nc(-c2ccc(-c3ccc(-c4c[nH]c([C@@H](NC(=O)C(C)(C)C)C(C)(C)C)n4)c(F)c3)cc2)c[nH]1)C(C)(C)C [Compound N-93] | >100 fold | 
COC(C)(C)C(=O)N[C@H](c1nc(-c2ccc(-c3ccc(-c4c[nH]c([C@@H](NC(=O)C(C)(C)OC)C(C)(C)C)n4)c(F)c3)cc2)c[nH]1)C(C)(C)C [Compound N-94] | >100 fold | 
CC(C)(C)[C@H](NC(=O)c1ccccc1F)c1nc(-c2ccc(-c3ccc(-c4c[nH]c([C@@H](NC(=O)c5ccccc5F)C(C)(C)C)n4)c(F)c3)cc2)c[nH]1 [Compound N-95] | >100 fold | 
COC(C)(C)C(=O)N[C@H](c1nc(-c2ccc(-c3ccc(-c4c[nH]c([C@@H](NC(=O)C(C)(C)OC)C(C)C)n4)cc3F)cc2)c[nH]1)C(C)C [Compound N-96] | >100 fold | 
CC(C)[C@H](NC(=O)C(C)(C)F)c1nc(-c2ccc(-c3ccc(-c4c[nH]c([C@@H](NC(=O)C(C)(C)F)C(C)C)n4)cc3F)cc2)c[nH]1 [Compound N-97] | >100 fold | 
CC(C)[C@H](NC(=O)C(C)(C)OCC(F)F)c1nc(-c2ccc(-c3ccc(-c4c[nH]c([C@@H](NC(=O)C(C)(C)OCC(F)F)C(C)C)n4)cc3F)cc2)c[nH]1 [Compound N-98] | >100 fold | 
CC(C)[C@H](NC(=O)c1cc(Cl)ccc1F)c1nc(-c2ccc(-c3ccc(-c4c[nH]c([C@@H](NC(=O)c5cc(Cl)ccc5F)C(C)C)n4)cc3F)cc2)c[nH]1 [Compound N-99] | >100 fold | 
CC(C)[C@H](NC(=O)C(C)(C)C)c1nc(-c2ccc(-c3ccc(-c4c[nH]c([C@@H](NC(=O)C(C)(C)C)C(C)C)n4)cc3F)cc2)c[nH]1 [Compound N-100] | >100 fold | 
COC(C)(C)C(=O)N[C@H](c1nc(-c2ccc(-c3ccc(-c4c[nH]c([C@@H](NC(=O)C(C)(C)OC)C(C)C)n4)cn3)cc2)c[nH]1)C(C)C [Compound N-102] | >100 fold | 
CC(C)[C@H](NC(=O)C(C)(C)C)c1nc(-c2ccc(-c3ccc(-c4c[nH]c([C@@H](NC(=O)C(C)(C)C)C(C)C)n4)cn3)cc2)c[nH]1 [Compound N-103] | >100 fold | 
CC(C)(C)[C@H](NC(=O)C1CCC(F)(F)CC1)c1nc(-c2ccc(-c3cnc(-c4c[nH]c([C@@H](NC(=O)C5CCC(F)(F)CC5)C(C)(C)C)n4)cn3)cc2)c[nH]1 [Compound N-104] | >100 fold | 
CC(C)(C)C(=O)N[C@H](c1nc(-c2ccc(-c3cnc(-c4c[nH]c([C@@H](NC(=O)C(C)(C)C)C(C)(C)C)n4)cn3)cc2)c[nH]1)C(C)(C)C [Compound N-105] | >100 fold | 
O=C(NC(c1nc(-c2ccc(-c3ccc(-c4c[nH]c(C(NC(=O)C5CCC(F)(F)CC5)C5(C(F)(F)F)CC5)n4)cc3)cc2)c[nH]1)C1(C(F)(F)F)CC1)C1CCC(F)(F)CC1 (centres unmarked) [Compound N-109B] | >100 fold | 
CC(C)(C)[C@H](NC(=O)C1CCC(F)(F)C1)c1nc(-c2ccc(-c3ccc(-c4c[nH]c([C@@H](NC(=O)C5CCC(F)(F)C5)C(C)(C)C)n4)cc3)cc2)c[nH]1 (some centres unmarked) [Compound N-111A] | >100 fold | 
C=C1CCC(C(=O)N[C@H](c2nc(-c3ccc(-c4ccc(-c5c[nH]c([C@@H](NC(=O)C6CCC(=C)CC6)C(C)(C)C)n5)cc4)cc3)c[nH]2)C(C)(C)C)CC1 [Compound N-118] | >100 fold | 
CC(C)(C)[C@H](NC(=O)CC1CC(F)(F)C1)c1nc(-c2ccc(-c3ccc(-c4c[nH]c([C@@H](NC(=O)CC5CC(F)(F)C5)C(C)(C)C)n4)cc3)cc2)c[nH]1 [Compound N-120] | >100 fold | 

SMILES | Fold-Synergistic 1a (Q30E) | other results
CC(C)(C)[C@H](NC(=O)C1CCC(=C(F)F)CC1)c1nc(-c2ccc(-c3ccc(-c4c[nH]c([C@@H](NC(=O)C5CCC(=C(F)F)CC5)C(C)(C)C)n4)cc3)cc2)c[nH]1 (some centres unmarked) [Compound N-121] | >100 fold | 
CC(C)(C)[C@H](NC(=O)C1CCC2(CC1)CC2)c1nc(-c2ccc(-c3ccc(-c4c[nH]c([C@@H](NC(=O)C5CCC6(CC5)CC6)C(C)(C)C)n4)cc3)cc2)c[nH]1 (some centres unmarked) [Compound N-123] | >100 fold | 
COC(=O)N[C@H](C(=O)N[C@H](c1nc(-c2ccc3cc(-c4ccc(-c5cnc([C@@H](NC(=O)[C@@H](NC(=O)OC)C(C)C)C(C)C)[nH]5)cc4)ccc3c2)c[nH]1)C(C)C)C(C)C [Compound P-1] | <10 fold | 
CC(C)CC(=O)N[C@H](c1nc(-c2ccc3cc(-c4ccc(-c5cnc([C@@H](NC(=O)CC(C)C)C(C)C)[nH]5)cc4)ccc3c2)c[nH]1)C(C)C [Compound P-2] | >10 fold | 
COC(=O)N[C@H](C(=O)N[C@H](c1nc(-c2ccc(-c3ccc(-c4c[nH]c([C@@H](NC(=O)[C@@H](NC(=O)OC)C(C)C)C5CC5)n4)cc3)cc2)c[nH]1)C1CC1)C(C)C [Compound P-3] | >10 fold | 
CC(C)CC(=O)N[C@@H](CC(C)(C)C)c1nc(-c2ccc(-c3ccc(-c4c[nH]c([C@H](CC(C)(C)C)NC(=O)CC(C)C)n4)cc3)cc2)c[nH]1 [Compound P-4] | >10 fold | 
CC(C)CC(=O)N[C@@H](c1ccccc1)c1nc(-c2ccc(-c3ccc(-c4c[nH]c([C@@H](NC(=O)CC(C)C)c5ccccc5)n4)cc3)cc2)c[nH]1 [Compound P-5] | >100 fold | 
CC(C)CC(=O)N[C@@H](Cc1ccccc1)c1nc(-c2ccc(-c3ccc(-c4c[nH]c([C@H](Cc5ccccc5)NC(=O)CC(C)C)n4)cc3)cc2)c[nH]1 [Compound P-6] | >10 fold | 
CC(C)CC(=O)N[C@@H](Cc1cccc2ccccc12)c1nc(-c2ccc(-c3ccc(-c4c[nH]c([C@H](Cc5cccc6ccccc56)NC(=O)CC(C)C)n4)cc3)cc2)c[nH]1 [Compound P-7] | <10 fold | 
CC(C)CC(=O)N[C@@H](Cc1ccc2ccccc2c1)c1nc(-c2ccc(-c3ccc(-c4c[nH]c([C@H](Cc5ccc6ccccc6c5)NC(=O)CC(C)C)n4)cc3)cc2)c[nH]1 [Compound P-8] | <10 fold | 
COC(C)(C)[C@H](NC(=O)C(C)(C)C)c1nc(-c2ccc(-c3ccc(-c4c[nH]c([C@@H](NC(=O)C(C)(C)C)C(C)(C)OC)n4)cc3)cc2)c[nH]1 [Compound P-9] | >100 fold | 
COC(C)(C)[C@H](NC(=O)C(C)(C)CF)c1nc(-c2ccc(-c3ccc(-c4c[nH]c([C@@H](NC(=O)C(C)(C)CF)C(C)(C)OC)n4)cc3)cc2)c[nH]1 [Compound P-10] | >100 fold | 
COc1cccc2c(C(=O)N3C(c4ncc(-c5ccc(-c6ccc(-c7cnc(C8C[C@H]9C[C@H]9N8C(=O)c8nc(Cl)cc9c(OC)cccc89)[nH]7)cc6)cc5)[nH]4)C[C@H]4C[C@H]43)nc(Cl)cc12 (some centres unmarked) [Compound P-49] | >100 fold | 
CC(C)C(c1ncc(-c2ccc(-c3ccc(-c4cnc(C(C(C)C)N5CCCCC5=O)[nH]4)cc3)cc2)[nH]1)N1CCCCC1=O (centres unmarked) [Compound P-52] | >10 fold | 
CC(C)CC(=O)N[C@H](c1ncc(-c2ccc(-c3ccc(-c4cnc([C@@H](NC(=O)CC(C)C)C(C)C)[nH]4)cc3)cc2)[nH]1)C(C)C [Compound P-55] |  | EC50 (genotype 1a Q30E replicon, BMS-790052 fixed at 200 nM, read-out: EC50 of P-55 in the presence of a fixed amount of BMS-790052): ~2 nM; EC50 (genotype 1a Q30E replicon, compound alone, read-out: EC50, titrated singly): > 200 nM; synergistic inhibitory effect with the combination (genotype 1a Q30E replicon, P-55 titrated with 200 nM BMS-790052): > 100 fold
CC1([C@H](NC(=O)[C@H]2C[C@@H]3CC(F)(F)C[C@@H]3C2)c2nc(-c3ccc(-c4ccc(-c5c[nH]c([C@@H](NC(=O)[C@H]6C[C@@H]7CC(F)(F)C[C@@H]7C6)C6(C)CC6)n5)cc4)cc3)c[nH]2)CC1 [Compound P-140] | >100 fold | 
CO[C@](C(=O)N[C@H](c1nc(-c2ccc(-c3ccc(-c4c[nH]c([C@@H](NC(=O)[C@@](OC)(c5ccccc5)C(F)(F)F)C(C)(C)C)n4)cc3)cc2)c[nH]1)C(C)(C)C)(c1ccccc1)C(F)(F)F [Compound P-141] | >100 fold | 
CC(C)(CF)C(=O)N[C@H](c1nc(-c2ccc(-c3ccc(-c4c[nH]c([C@@H](NC(=O)C(C)(C)CF)C5(C)CC5)n4)cc3)cc2)c[nH]1)C1(C)CC1 [Compound P-143] | >100 fold | 
CC1([C@H](NC(=O)C(C)(C)C2(O)CCC(F)(F)CC2)c2nc(-c3ccc(-c4ccc(-c5c[nH]c([C@@H](NC(=O)C(C)(C)C6(O)CCC(F)(F)CC6)C6(C)CC6)n5)cc4)cc3)c[nH]2)CC1 [Compound P-144] | >100 fold | 
